Experiment: gradient 5% acetonitrile 3 min, to 50% in 2 min, to 85% in 15 min, held 3 min, 100 µL/min
Details: column: Zorbax Extend-C18 2.1 x 50 mm; eluents: water / acetonitrile, 0.1% formic acid
Procedure, shortened: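 Standards, all pure, were combined into mixtures of ~100 molecules and run at 100 μL/min on a Zorbax Extend-C18 column (2.1 × 50 mm, 1.8 μm) with water and acetonitrile, each containing 0.1% formic acid. A coupled quadrupole time-of-flight mass spectrometer operated in positive and negative ionization mode. Retention time values come from computationally picked adduct peaks, each inspected manually.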

RP-LC retention time [s]	Structure (SMILES)
876	CCCCN(C)C(=O)CC1Sc2ncccc2N(CC(C)C)C1=O (stereo unspecified)
872	O=C(COc1ccccc1F)NC1CCCC(OC(=O)Nc2ccccc2)C1 (stereo unspecified)
953	COc1ccc(C2CCCN2C(=O)Cn2nc(C(F)(F)F)cc2C)cc1 (stereo unspecified)
890	COc1cc(NC(=O)CN2CCSc3ccccc32)cc(OC)c1OC
1260	CCC(C)n1c(=O)c2ccccc2n(Cc2nc(-c3ccc(SC)cc3)no2)c1=O (stereo unspecified)
811	CCC(C(=O)Nc1cnn(-c2ncc(N(C)C)cn2)c1)c1ccccc1 (stereo unspecified)
806	COc1ccc2cc(C(=O)Nc3ccc(F)cc3C)[nH]c2c1
609	COc1ccc(NC(=O)CN2CCc3[nH]c4ccc(OC)cc4c(=O)c3C2)c(OC)c1
727	COc1ccc(NC(=O)N2CCC(c3nc(C(=O)N4CCCC4)c(C)o3)CC2)cc1
780	COc1ccc(-c2nc3cc(C)ccn3c2NC(=O)COc2ccc(Cl)cc2Cl)cc1
589	O=C(NCc1ccncc1)c1ccc(-c2ccsc2)nc1
643	COCCCNC(=O)N1CCN(c2nnc(C)c3c(C)n(-c4ccc(C)cc4)nc23)CC1
786	CCc1cnc2c(c1SCC(=O)N(CC)CC)c(=O)n(C)c(=O)n2C
743	Cc1cc(C)n2nc(CN(C(=O)c3ccco3)c3ccccc3Cl)nc2n1
1080	Fc1ccc(-c2nc(-c3cn(-c4cccc(F)c4)nn3)no2)cc1
631	O=C(NCc1ccc(F)cc1)c1cn2c(n1)COCC2
861	O=c1n(Cc2cc(F)cc(F)c2)nc2c(S(=O)(=O)N3CCCC3)cccn12
666	Cc1cc2n(n1)CCC(=O)N2CCCC(=O)NCCc1ccccc1

RP-LC retention time [s]	Structure (SMILES)
837	O=C(NC1CCN(c2nnc3ccc(Cl)cn23)CC1)c1ccc(C(F)(F)F)s1
833	CCNS(=O)(=O)c1cc(-c2nnc(-c3ccc(OC)c(OC)c3)o2)ccc1C
623	Cc1ccc(-c2ccc(N3CCCC(C(=O)N4CCN(C(C)C)CC4)C3)nn2)cc1C (stereo unspecified)
733	CCOC(=O)c1oc2ccc(S(=O)(=O)N3CCCC(CN4CCCC4)CC3)cc2c1C (stereo unspecified)
686	CN(C)CCNC(=O)C1CCN(c2nc3ccc(-c4ccc(F)cc4)nc3s2)CC1
599	O=C(NCc1ccccc1C(F)(F)F)c1ccc2c(c1)ncn2CCN1CCCC1
869	COC(=O)C1=CN(c2ccc(C)cc2C)c2ccccc2S1(=O)=O
1010	Cc1ccc(CNC(=O)Cn2c(=O)cc(-c3nc(C(C)C)no3)c3ccccc32)cc1
656	COc1cccc2c(Nc3ccccc3)cc(C(=O)N3CCSCC3)nc12
689	CCOC(=O)C1CCC(CNC(=O)Nc2cc3c(cc2N2CCCCC2)n(C)c(=O)n3C)CC1 (stereo unspecified)
588	CCN1CCN(c2cc(C)c3cc(NC(=S)NCCC(C)C)ccc3n2)CC1
806	CC(=O)Nc1cc2c(cc1Sc1ccc(Cl)cc1)n(C)c(=O)n2C
688	O=C(CCc1c(-c2ccc(Cl)cc2)nc2ccccn12)NCc1ccccc1F
621	O=C1NCCCCCCN(C(=O)c2cc(CN3CCOCC3)on2)[C@H]2CCCC[C@@H]12
973	COc1ccc(NC(=O)c2cn(-c3cc(N4CCCC(C)C4)ncn3)cn2)cc1OC (stereo unspecified)
571	O=C(NCc1cccs1)C1CCCN(Cc2nc(-c3cccnc3)no2)C1 (stereo unspecified)
692	O=C1[C@H]2CN(Cc3c[nH]c4ccccc34)C[C@H]2C(=O)N1CCc1ccccc1
736	COc1ccc(C(=O)N2CCN(c3ccc(-c4nc(C)cs4)cn3)CC2)cc1OC
